Experimental data as given in patent US20240100000A1, “APPLICATION OF ADRB1 ACTIVE INHIBITOR IN PREPARING PREPARATION OR AS PREPARATION FOR TREATING PSORIASIS” (priority 2022, published 2024).
Where a name gives a salt, the structure may show the parent alone.

Assays:
[1] = tested on: catecholaminergic neurons; conditions: intraperitoneal injection; cited from earlier work
skin sympathetic nerve = experiment: Psoriasis model with skin sympathetic nerve ablation (intradermal 6-OHDA before IMQ); assay type: in vivo, mice; conditions: intradermal injection before IMQ treatment
Description: In the embodiment of the disclosure, the sympathectomy of local skin is as follows. […] of 6-hydroxydopamine (6-OHDA) are dissolved into 100 microliters (μL) of 0.1% ascorbic acid solution (diluted with 0.9% sterile sodium chloride) to prepare a fresh sympathetic nerve ablation solution. Wild-type mice aged 7-8 weeks are selected to shave their back hair, and the exposed skin area is 2 centimeters (cm)×2 cm. Then, the mice are intradermally injected with 100 μL fresh sympathetic nerve ablation solution, controls are injected with an injecting control agent (100 μL of 0.1% ascorbic acid solution).

NF-κB (P65) = experiment: Activation of NF-κB, AKT, p38, ERK in IL-23-activated primary γδT cells; assay type: cell-based, mice
From the text: (§1) In the embodiment of the disclosure, in order to study how to ADRB1 regulates the inflammatory response of γδT cells, high-purity primary γδT cells are isolated from the spleen of mice by magnetic bead sorting kit, and stimulated with ADRB1 agonist and antagonist respectively.

NF-κB = NF-κB phosphorylation in skin of IMQ-induced psoriatic mice; assay type: in vivo
primary γδT cells = experiment: IL17A/F transcription in primary γδT cells stimulated by IL-23 and ACE/DOB; assay type: cell-based, mice; conditions: primary γδT cells activated by IL-23; DOB at high concentration
From the text: as §1

IMQ-induced mice [2] = experiment: IMQ-induced psoriasis mouse model smeared with β1-AR antagonist/agonist; assay type: in vivo
Description: In the embodiment of the disclosure, the construction of psoriasis mouse model smeared with β1-AR antagonist/agonist is as follows. 5 μL of β1-AR antagonist/agonist storage solution (40 mg/mL, DMSO solvent) is taken and dissolved in 95 μL of 20% sulfobutylether-beta-cyclodextrin derivative (SBE-β-CD) solution (diluted with sterile sodium chloride) to prepare 2 mg/mL antagonist/agonist diluent. Wild-type mice aged 7-8 weeks are selected to shave their back hair, and the exposed skin area is 2 cm×2 cm. The mice are applied with 100 μL of the antagonist/agonist diluent, and controls are smeared with a smearing control agent (i.e., 5 μL DMSO+95 μL 20% SBE-β-CD solution).

[3] = tested on: γδT-cell deficient mice (Tcrd−/−); experiment: DOB applied to skin of γδT-cell deficient mice (Tcrd−/−); assay type: in vivo
From the text: Combined with the previous results, it is verified that NE in skin is mainly derived from skin sympathetic nerve and mediates the release IL-17 from γδT cells rather than αβT cells through NE-ADRB1 signaling pathway.

[4] = Neurotransmitter content (ELISA) and TH phosphorylation (western blot) in IMQ-treated mice; assay type: in vivo
β1-AR = experiment: Proportion of β1-AR+ T cells in skin of IMQ-treated mice (immunofluorescence and flow cytometry); assay type: in vivo
From the text: In the embodiment of the disclosure, immunofluorescence and flow cytometry are used to detect β1-AR is mainly expressed in IL-17A-producing γδT cells (also referred to as γδT-17 cells), as shown in FIG. 14.

IMQ-induced mice [5] = experiment: Psoriasis model with subcutaneous norepinephrine (NE) injection; assay type: in vivo; conditions: subcutaneous injection while IMQ is smeared
Description: In the embodiment of the disclosure, the construction of psoriasis model injected with norepinephrine (NE) is as follows. 6 μL of norepinephrine storage solution (10 millimoles per liter, abbreviated mM) is dissolved into 100 μL of 1 xphosphate-buffered saline (also referred to as 1×PBS, specifically prepared by a commonly used 1× phosphate buffered saline recipe), and […] NE diluent is prepared. Wild-type mice aged 7-8 weeks are selected to shave their back hair, and the exposed skin area is 2 cm×2 cm. Then, the mice are subcutaneously injected with 100 μL NE diluent, and controls are injected with an injecting control agent (6 μL dimethyl sulfoxide, abbreviated DMSO+100 μL PBS).

Dendritic cells (DCs) = conditions: cited from earlier work; for IL-17A induced by stimulated DCs / production of IFN-γ by CD4 cells: DCs in mice stimulated
[6] = psoriatic mice treated with IMQ vs control mice treated with VAS

## NCCc1cc(O)c(O)cc1O [6-OHDA, 6-hydroxydopamine]
[1]
  IMQ induced ear swelling: reduce
  production of IL-17: does not affect
Skin sympathetic nerve
  IL-17A+γδT cells in sympathetic denervated skin: decreased
  NE in sympathetic denervated skin: decrease
Skin sympathetic nerve; removal of skin sympathetic nerve
  psoriasis-like phenotype of mice induced by IMQ: reduces

## CCCC(=O)Nc1ccc(OCC(O)CNC(C)C)c(C(C)=O)c1 (stereo not drawn) [ACE, acebutolol hydrochloride]
NF-κB (P65)
  NF-κB (P65) phosphorylation: inhibits
  activation of P38, ERK, JNK and AKT: do not affect
NF-κB
  activation of NF-κB (phosphorylation) in the skin: inhibition
Primary γδT cells
  transcription of IL17A: decreases
  transcription of IL17F: decreases
IMQ-induced mice [2]; IMQ-induced mice smeared with drug
  proportion of γδT-17 cells in the skin: reduced

## CC(CCc1ccc(O)cc1)NCCc1ccc(O)c(O)c1 (stereo not drawn) [DOB, dobutamine hydrochloride]
NF-κB (P65)
  NF-κB (P65) phosphorylation: significantly increases
  activation of P38, ERK, JNK and AKT: do not affect
NF-κB
  activation of NF-κB (phosphorylation) in the skin: enhances
Primary γδT cells
  transcription of IL17A: increase
  transcription of IL17F: increase
[3]
  IL-17 producing capacity αβT cells: no effect
[3]; lack of γδT cells
  promoting effects on the psoriasis-like phenotype and inflammatory infiltration: offset
IMQ-induced mice [2]; IMQ-induced mice
  IL-17A production of γδT cells in the skin: promotes
IMQ-induced mice [2]; IMQ-induced mice smeared with drug, compared with the control group
  back skin thickness, erythema, and scaling: increased
IMQ-induced mice [2]; IMQ-induced mice, smeared on back skin, 100 μL of 2 mg/mL diluent, 4 consecutive days, compared with the control group
  psoriasis-like phenotype: aggravated

## CC(C)Cn1cnc2c(N)nc3ccccc3c21 [IMQ, imiquimod]
[4]; [6]
  NE content in both skin and serum: higher
  dopamine in skin and serum: no difference
[4]; western blot
  TH phosphorylation in mouse skin: significant up-regulation
β1-AR; IMQ-treated vs VAS treated mice
  proportion of β1-AR+ cells in γδT cells in the skin: significantly higher
β1-AR; VAS-treated vs IMQ-treated mice
  proportion of β1-AR+ cells in αβT cells in the skin: no significant difference

## NC[C@H](O)c1ccc(O)c(O)c1 [NE, norepinephrine]
IMQ-induced mice [5]
  proportion of IL-17A+γδT cells in the skin of mice: increases
IMQ-induced mice [5]; 4 days
  psoriasis-like phenotype of mice induced by IMQ: exacerbates
Dendritic cells (DCs)
  IL-17A induced by stimulated DCs: induce
  production of IFN-γ by CD4 cells: reducing

## CC(C)(C)NCC(O)c1ccc(O)c(CO)c1 (stereo not drawn) [salbutamol]
Dendritic cells (DCs); DCs from treated mice
  IL-23 production by DCs: more
Dendritic cells (DCs)
  IL-17A induced by stimulated DCs: induce
  production of IFN-γ by CD4 cells: reducing
